Measured values: patent US10745382B2 (BRISTOL-MYERS SQUIBB COMPANY, priority 2015, dated 2020)
pIC50: −log10 of the molar value. Like-named read-outs stand apart in the source and are kept apart here.

Target: T1, PD-1/PD-L1 (Homo sapiens, UniProt Q9NZQ7)
T1 construct: made in house; host or cells: HEK293T
Assay: PD-1/PD-L1 Homogenous Time-Resolved Fluorescence (HTRF) binding assay
Details: PD-L1-His 10 nM, PD-1-Ig 20 nM, read-out: Range or IC50
In short: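 Binding was measured by HTRF in dPBS with 0.1% BSA and 0.05% Tween-20. Detection used europium cryptate anti-Ig (1 nM final) and APC anti-His (20 nM final) added over the binding reaction.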

T1 sequence (Q9NZQ7 with tags, fused parts or gaps): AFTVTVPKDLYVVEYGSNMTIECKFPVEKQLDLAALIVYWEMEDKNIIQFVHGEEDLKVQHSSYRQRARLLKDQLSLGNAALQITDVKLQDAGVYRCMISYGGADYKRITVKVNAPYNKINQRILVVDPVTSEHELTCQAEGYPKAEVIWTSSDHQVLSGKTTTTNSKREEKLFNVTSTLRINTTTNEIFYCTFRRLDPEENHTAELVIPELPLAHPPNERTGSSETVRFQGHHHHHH

| SMILES | pIC50 (value given as range class) | pIC50 (numeric IC50) |
| --- | --- | --- |
| Cc1c(COc2cc(OCc3cncc(C#N)c3)c(C(C)N(C)[C@@H](CO)C(=O)O)cc2Cl)cccc1-c1cccc(OCCCN2CC[C@@H](O)C2)c1C (stereo partly drawn) [Example 4139, N-(1-(5-chloro-2-((5-cyanopyridin-3-yl)methoxy)-4-((3′-(3-((R)-3-hydroxypyrrolidin-1-yl)propoxy)-2,2′-dimethyl-[1,1′-biphenyl]-3-yl)methoxy)phenyl)ethyl)-N-methyl-L-serine] | 8.00 to 9.68 |  |
| CC(=O)N[C@H]1CCN(CCCOc2cccc(-c3c(Cl)ccc(COc4cc(OCc5cncc(C#N)c5)c(CNC(C)(CO)CO)cc4Cl)c3Cl)c2C)C1 [Example 2094, N-((3S)-1-(3-((2′,6′-dichloro-3′-((2-chloro-5-((5-cyanopyridin-3-yl)methoxy)-4-(((1,3-dihydroxy-2-methylpropan-2-yl)amino)methyl)phenoxy)methyl)-2-methyl-[1,1′-biphenyl]-3-yl)oxy)propyl)pyrrolidin-3-yl)acetamide] |  | 8.22 |
| CC(CO)(CO)NCc1cc(Cl)c(OCc2cccc(-c3cccc(OCCCNC[C@H](O)CO)c3Cl)c2Cl)cc1OCc1cccc(C#N)c1 [Example 2060, (S)-3-((4-chloro-5-((2,2′-dichloro-3′-(3-((2,3-dihydroxypropyl)amino)propoxy)-[1,1′-biphenyl]-3-yl)methoxy)-2-(((1,3-dihydroxy-2-methylpropan-2-yl)amino)methyl)phenoxy)methyl)benzonitrile] | 8.00 to 9.68 |  |
| Cc1c(OCCCN2CC[C@@H](O)C2)cccc1-c1cccc(COc2cc(OCC3CC3(F)F)c(CNC(CO)CO)cc2Cl)c1Cl (stereo partly drawn) [Example 2320, 2-((5-chloro-4-((2-chloro-3′-(3-((R)-3-hydroxypyrrolidin-1-yl)propoxy)-2′-methyl-[1,1′-biphenyl]-3-yl)methoxy)-2-((2,2-difluorocyclopropyl)methoxy)benzyl)amino)propane-1,3-diol] | 8.00 to 9.68 |  |
| Cc1c(COCCN2CC[C@@H](O)C2)cccc1-c1cccc(COc2cc(OCc3cncc(C#N)c3)c(CN3CCCC[C@H]3C(=O)O)cc2Cl)c1C [Example 4126, (S)-1-(5-chloro-2-((5-cyanopyridin-3-yl)methoxy)-4-((3′-((2-((R)-3-hydroxypyrrolidin-1-yl)ethoxy)methyl)-2,2′-dimethyl-[1,1′-biphenyl]-3-yl)methoxy)benzyl)piperidine-2-carboxylic Acid] | 8.00 to 9.68 |  |
| Cc1c(COc2cc(OCc3cncc(C#N)c3)c(CN[C@@](C)(CO)C(=O)O)cc2Cl)cccc1-c1cccc(OCCCN2CC[C@H](CO)[C@H](O)C2)c1C [Example 2261, (2S)-2-(5-chloro-2-((5-cyanopyridin-3-yl)methoxy)-4-((3′-(3-((3 S,4R)-3-hydroxy-4-(hydroxymethyl)piperidin-1-yl)propoxy)-2,2′-dimethylbiphenyl-3-yl)methoxy)benzylamino)-3-hydroxy-2-methylpropanoic Acid] | 8.00 to 9.68 |  |
| CCC(CO)(CO)NCc1cc(Cl)c(OCc2cccc(-c3cccc(OCCCN4CC[C@@H](O)C4)c3C)c2C)cc1OCc1cncc(C#N)c1 [Example 2280, (R)-5-((4-chloro-2-(((1-hydroxy-2-(hydroxymethyl)butan-2-yl)amino)methyl)-5-((3′-(3-(3-hydroxypyrrolidin-1-yl)propoxy)-2,2′-dimethyl-[1,1′-biphenyl]-3-yl)methoxy)phenoxy)methyl)nicotinonitrile] | 8.00 to 9.68 |  |
| Cc1c(COc2cc(OCc3cncc(S(C)(=O)=O)c3)c(CN[C@](C)(CO)C(=O)O)cc2Cl)cccc1-c1cccc(OCCCN2CC[C@@H](C(=O)O)C2)c1C [Example 1083, (R)-1-(3-((3′-((4-((((R)-2-carboxy-1-hydroxypropan-2-yl)amino)methyl)-2-chloro-5-((5-(methylsulfonyl)pyridin-3-yl)methoxy)phenoxy)methyl)-2,2′-dimethyl-[1,1′-biphenyl]-3-yl)oxy)propyl)pyrrolidine-3-carboxylic Acid] | 8.00 to 9.68 |  |
| Cc1ccc(OCCCN2CC[C@@H](O)C2)c(C)c1-c1cccc(COc2cc(OCc3cncc(C#N)c3)c(CN3CCCC[C@H]3C(=O)O)cc2Cl)c1C [Example 3030, (2S)-1-(5-chloro-2-((5-cyanopyridin-3-yl)methoxy)-4-((3′-(3-((R)-3-hydroxypyrrolidin-1-yl)propoxy)-2,2′,6′-trimethyl-[1,1′-biphenyl]-3-yl)methoxy)benzyl)piperidine-2-carboxylic Acid] | 8.00 to 9.68 |  |
| CNC(=O)c1cccc(-c2cccc(COc3cc(OCc4cc(F)cc(F)c4)c(CN4CCC[C@H]4C(=O)O)cc3Cl)c2C)c1C [Example 4024, (5-chloro-2-((3,5-difluorobenzyl)oxy)-4-((2,2′-dimethyl-3′-(methylcarbamoyl)-[1,1′-biphenyl]-3-yl)methoxy)benzyl)-L-proline] |  | 7.06 |
| Cc1c(COc2cc(OCc3cncc(C#N)c3)c(CN3CCCC[C@H]3C(=O)O)cc2Cl)cccc1-c1cccc(OCC2(CN3CC[C@@H](O)C3)CC2)c1C [Example 2346, (S)-1-(5-chloro-2-((5-cyanopyridin-3-yl)methoxy)-4-((3′-((1-(((R)-3-hydroxypyrrolidin-1-yl)methyl)cyclopropyl)methoxy)-2,2′-dimethyl-[1,1′-biphenyl]-3-yl)methoxy)benzyl)piperidine-2-carboxylic Acid] | 8.00 to 9.68 |  |
| Cc1c(COc2cc(OCc3cncc(C#N)c3)c(CNC(C)(CO)CO)cc2Cl)cccc1-c1cccc(OCCCNC(=O)C(O)CO)c1Cl (stereo not drawn) [Example 2088, N-(3-((2-chloro-3′-((2-chloro-5-((5-cyanopyridin-3-yl)methoxy)-4-(((1,3-dihydroxy-2-methylpropan-2-yl)amino)methyl)phenoxy)methyl)-2′-methyl-[1,1′-biphenyl]-3-yl)oxy)propyl)-2,3-dihydroxypropanamide] | 8.00 to 9.68 |  |
| C=CC(=O)NCCNCc1cc(Cl)c(OCc2cccc(-c3cccc(OCCCN4CC[C@@H](O)C4)c3C)c2C)cc1OCc1cncc(S(C)(=O)=O)c1 [Example 1034, (R)—N-(2-((5-chloro-4-((3′-(3-(3-hydroxypyrrolidin-1-yl)propoxy)-2,2′-dimethyl-[1,1′-biphenyl]-3-yl)methoxy)-2-((5-(methylsulfonyl)pyridin-3-yl)methoxy)benzyl)amino)ethyl)acrylamide] | 7.00 to 8.00 |  |

More lines, now with the values ahead:

| pIC50 (value given as range class) | pIC50 (numeric IC50) | SMILES |
| --- | --- | --- |
| 8.00 to 9.68 |  | Cc1c(COc2cc(OCc3cncc(C#N)c3)c(C(C)N[C@@H](CO)C(=O)O)cc2Cl)cccc1-c1cccc(OCCCN2CC[C@@H](O)C2)c1C (stereo partly drawn) [Example 4141, (1-(5-chloro-2-((5-cyanopyridin-3-yl)methoxy)-4-((3′-(3-((R)-3-hydroxypyrrolidin-1-yl)propoxy)-2,2′-dimethyl-[1,1′-biphenyl]-3-yl)methoxy)phenyl)ethyl)-L-serine] |
| 8.00 to 9.68 |  | Cc1c(COCCN2CC[C@@H](O)C2)cccc1-c1cccc(COc2cc(OCc3cncc(C#N)c3)c(CNC(CO)CO)cc2Cl)c1C [Example 4122, (R)-5-((4-chloro-2-(((1,3-dihydroxypropan-2-yl)amino)methyl)-5-((3′-((2-(3-hydroxypyrrolidin-1-yl)ethoxy)methyl)-2,2′-dimethyl-[1,1′-biphenyl]-3-yl)methoxy)phenoxy)methyl)nicotinonitrile] |
| 7.00 to 8.00 |  | C=CC(=O)NCCNCc1cc(Cl)c(OCc2cccc(-c3cccc(OCCCN4CC[C@@H](O)C4)c3C)c2C)cc1OCc1cncc(C#N)c1 [Example 1031, (R)—N-(2-((5-chloro-2-((5-cyanopyridin-3-yl)methoxy)-4-((3′-(3-(3-hydroxypyrrolidin-1-yl)propoxy)-2,2′-dimethyl-[1,1′-biphenyl]-3-yl)methoxy)benzyl)amino)ethyl)acrylamide] |
| 8.00 to 9.68 |  | Cc1c(COc2cc(OCc3cncc(S(C)(=O)=O)c3)c(CNC(C)(CO)CO)cc2Cl)cccc1-c1cccc(OCCCN2CC[C@@H](O)C2)c1C [Example 1533, (R)-2-((5-chloro-4-((3′-(3-(3-hydroxypyrrolidin-1-yl)propoxy)-2,2′-dimethyl-[1,1′-biphenyl]-3-yl)methoxy)-2-((5-(methylsulfonyl)pyridin-3-yl)methoxy)benzyl)amino)-2-methylpropane-1,3-diol] |
| 8.00 to 9.68 |  | Cc1c(COc2cc(OCc3cncc(C#N)c3)c(CN[C@@](C)(CO)C(=O)O)cc2Cl)cccc1-c1cccc(OCCCN2CCC[C@H](C(=O)O)C2)c1C [Example 2264, (3S)-1-(3-(3′-((4-(((S)-2-carboxy-1-hydroxypropan-2-ylamino)methyl)-2-chloro-5-((5-cyanopyridin-3-yl)methoxy)phenoxy)methyl)-2,2′-dimethylbiphenyl-3-yloxy)propyl)piperidine-3-carboxylic Acid] |
| 8.00 to 9.68 |  | Cc1c(COc2cc(OCc3cncc(C#N)c3)c(CNC(CO)CO)cc2Cl)cccc1-c1cccc(OCCCNC[C@H](O)CO)c1C [Example 2293, (S)-5-((4-chloro-2-(((1,3-dihydroxypropan-2-yl)amino)methyl)-5-((3′-(3-((2,3-dihydroxypropyl)amino)propoxy)-2,2′-dimethyl-[1,1′-biphenyl]-3-yl)methoxy)phenoxy)methyl)nicotinonitrile] |
| 8.00 to 9.68 |  | C[C@](CO)(NCc1cc(Cl)c(OCc2cccc(-c3cccc(OCCCN4C[C@@H](O)[C@H](O)C4)c3Cl)c2Cl)cc1OCc1cncc(C#N)c1)C(=O)O [Example 2078, (R)-2-((5-chloro-2-((5-cyanopyridin-3-yl)methoxy)-4-((2,2′-dichloro-3′-(3-((3R,4R)-3,4-dihydroxypyrrolidin-1-yl)propoxy)-[1,1′-biphenyl]-3-yl)methoxy)benzyl)amino)-3-hydroxy-2-methylpropanoic Acid] |
| 8.00 to 9.68 |  | Cc1c(COc2cc(OCc3cncc(C#N)c3)c(CN3CCCC[C@H]3C(=O)O)cc2Cl)cccc1-c1cccc(OCCCN2CCCC[C@H]2C(=O)O)c1C [Example 2268, (2S)-1-(3-(3′-((4-(((S)-2-carboxypiperidin-1-yl)methyl)-2-chloro-5-((5-cyanopyridin-3-yl)methoxy)phenoxy)methyl)-2,2′-dimethylbiphenyl-3-yloxy)propyl)piperidine-2-carboxylic Acid] |
